Measured values taken from patent US20060057071A1, “Paramagnetic complexes with pendant crown compounds showing improved targeting-specificity as MRI contrast agents” (priority 2004, published 2006).
Read-outs that look alike come from different tables or passages of the source.

Key:
[1] = 1H NMRD profiles (water proton relaxivity); format: physicochemical; settings: for D / TR / TV / a / q / r / Δ^2: 25° C., pH 6.9, fits of NMRD profile and 17O NMR
Description: (§1) Measuring the relaxation rates of an abundant nuclear species as a function of the magnetic field over a wide range is called relaxometry. A relaxometry profile is a plot of the nuclear magnetic relaxation rate, usually 1/T1, as a function of the Larmor frequency or the magnetic field. This profile is also called a Nuclear Magnetic Resonance Dispersion (NMRD) profile. Compared with the NMRD profile, the prominent advantage of the ^17O NMR technique is that it allows the accurate determination of the water exchange rate 1/TM. This is a consequence of the oxygen nucleus being closer to the paramagnetic centre when bound in the inner-sphere, wherein the outer-sphere contributions to the relaxation rates are negligibly small. With the help of NMRD profiles, ^17O NMR measurements, and the Soloman-Bloemnergen-Morgan theory, several important parameters, such as TM, TR, TV, Δ^2 and rH, can be measured.
Water proton nuclear magnetic resonance dispersion NMRD profile is used to record the longitudinal water proton relaxation rates as a function of magnetic fields. The method is, in principle, sensitive to all of the parameters that influence relaxivity. The ^1H NMRD profiles were measured over a continuum of magnetic field strength from 0.00024 to 0.24 T (corresponding to 0.01-10 MHz proton Larmor frequency, 1 T≈41.7 MHz) on a Spinmaster FFC (Stelar, Mede (PV)), which is a fast field-cycling NMR relaxometer installed at the LIMA Laboratory (Bioindustry Park, Ivrea (TO), Italy). The relaxometer worked under complete control with an absolute uncertainty in 1/T1 of ±2%. The NMRD profiles were measured using 1-2 mM solutions of the complexes.

[2] = Variable-temperature 17O NMR transverse relaxation rate; format: physicochemical; settings: for TM: pH 6.9, derived from VT 17O NMR spectroscopy; for exchange lifetime TM of inner-sphere coordinated water: 298 K (25° C.), 2.12 T; for q, inner-sphere coordinated water molecules: from NMRD profile / 17O NMR data, near neutral pH
Description: as §1
The variable-temperature ^17O NMR measurements were recorded on a JEOL EX-90 (2.1 T) spectrometer that was equipped with a 5 mm probe, by using a D2O external lock. The experimental settings were: spectral width of 10000 Hz, pulse width of 7 μs, acquisition time of 10 ms, 1000 scans, and no sample spinning. Solutions containing 2.6% of ^17O isotope were used. The observed transverse relaxation rates (R2obs^O) were calculated from the signal width at half height.

[3] = cited from earlier work
kidney cortex = assay: In vivo MRI, renal intensity enhancement; parameters: species or system rat; settings: for maximal renal intensity enhancement (IE): 0.1 mmol/kg (standard dosage), rat, first few minutes after administration
Experimental: (§2) To study the MRI contrast and biodistribution behavior of gadolinium complexes […] pendant crown ethers, experiments were performed using male Sprague-Dawley (SD) rats that weighted 150-180 g, and were housed at the Wuhan Institute of Physical and Mathematics of the Chinese Academy of Sciences (Wuhan, Hubei Province, China). All procedures conformed to the institutional guidelines for animal welfare. The rat was injected via the femoral vein with 1 mL saline solution of GdL1 in concentrations of 0.1, 0.033, and 0.02 mM/kg, which are the standard dosage, one third and one fifth of the standard dosage used in clinic currently. MR imaging was performed on a 4.7 T Bruker BIO-SPEC-47/30 MRI scanner with a custom spiral surface coil. The animal was scanned in the prone position in the MRI experiment. […] The total duration of the dynamic scanning lasted up to 400 min after the administration, with an image every 4 min. A water tube was placed in the field of view as a phantom reference. The intensity enhancement (IE) of the region of interest (RI) at time point t is expressed by IE=100% (RI(t)-RI(0))/RI(0) where RI(t) corresponds to the normalized signal intensity as measured at time point, t and RI(0) is the normalized signal intensity precontrast.

liver parenchyma = assay: In vivo MRI, hepatic intensity enhancement; parameters: species or system rat; settings: for maximal hepatic IE: 0.1 mmol/kg (standard dosage), rat
Experimental: as §2

[4] = 1H NMRD profiles (water proton relaxivity); format: physicochemical; settings: 20 MHz
[5] = Luminescence lifetime measurements for inner-sphere water molecules q (Tb complexes); format: physicochemical; settings: for kH2O, absolute emission depopulation rate constant: in H2O; for kH2O, absolute emission depopulation rate constant / kH2O (Table 1), absolute emission depopulation rate constant / q, hydration state: pH 6.9 (0.1 M Tris/HCl), 298 K; for kH2O, absolute emission depopulation rate constant / kH2O (Table 1), absolute emission depopulation rate constant: ±10%; for kH2O (Table 1), absolute emission depopulation rate constant: title names H2O and D2O; for q, hydration state: q^Tb = 5 (1/τH2O - 1/τD2O-0.06); for inner-sphere coordinated (bound) water molecules: luminescent measurements, pH 6.9
Description: As previously mentioned, inner-sphere proton relaxivity is linearly proportional to the number of water molecules q that are directly coordinated to the Gd^3+ center. However, there is a trade-off between the q value and toxicity. […] It is noteworthy that there is no direct method of measuring the hydration number. The two commonly used indirect methods are as follows: (1) Lanthanide-induced shift (LIS) methods (see, Alpoim et al., J. Chem. Soc., Dalton Trans., 1992, 463). For paramagnetic Ln^3+ ions, the plot of the observed ^17O shift in Ln^3+ chelate solution versus the complex concentration gives a straight line, with the slope being proportional to its hydration number. (2) The lanthanide luminescence method. According to the Horrocks equation, the q value can be calculated by the emission rate constants for the depopulation of Tb^3+ or Eu^3+ complexes measured in H2O and D2O (see, Beeby at al., J. Chem. Soc., Perkin Trans. 2, 1999, 493). With this method, the q values of the Gd^3+ complexes in aqueous solution can be measured indirectly by their corresponding Tb^3+ or Eu^3+ complexes, because of the very similar coordination behavior between these three lanthanide ions.
Luminescence lifetime measurements were all obtained on a Perkin-Elmer LS 50B spectrofluorimeter with a 420 nm cut-off filter. The concentration of the complex was 1×10^−5˜1×10^−4 mol dm^−3. The emission of Tb^3+ or Eu^3+ complexes was monitored at […]. Gd^3+ is a neighbor of Eu^3+ and Tb^3+ with a nearly identical ionic radius, and thus their chemistries are virtually identical. Therefore, the Horrocks equation for determining the number of coordinated water molecules q for Eu^3+ and Tb^3+ is still valid for the calculation of the q value of Gd^3+. In general, the number of coordinated water molecules q can be determined by the measurement of the luminescent lifetime of the complexes separately in H2O and D2O by application of the Horrocks equation. q′corr=A′(kH2O−kD2O−a) where k is the constant for depopulation (reciprocal of luminescent lifetime), and A is a proportionality constant that signifies the sensitivity of the lanthanide ion to vibronic quenching by OH oscillators. a is correlation value for the consideration of the outer-sphere water molecules.

## O=C([O-])CN(CCN(CC(=O)[O-])CC(=O)O)CCN(CC(=O)[O-])CC(=O)O.[Gd+3] [Gd-DTPA, reference compound]
[1]
  D: 2.24E-5 cm^2s^−1
  TR: 73 ps
  TV: 20 ps
  a: 4.0 Å
  q: 1
  r: 3.1 Å
  Δ^2: 4.2e+19 s⁻¹
[2]; 25° C.
  TM: 250 ns
[3]; 20 MHz, 298 K, typical values
  r1p: 4.69 mM⁻¹ s⁻¹
[3]; 298 K, typical values
  bound water molecular resident lifetime TM: ~303 ns

## CC(O)CN1CCN(CC(=O)[O-])CCN(CC(=O)[O-])CCN(CC(=O)[O-])CC1.[Gd+3] (stereo not shown) [Gd-[HP-DO3A]]
[3]; 40° C., 20 MHz
  relaxivity: 3.65 mM⁻¹ s⁻¹

## O=C([O-])CN1CCN(CCOCC2COCCOCCOCCOCCO2)CCN(CC(=O)[O-])CCN(CC(=O)[O-])CC1.[Gd+3] (stereo not shown) [GdL2, Gd^3+ complex of L2]
Kidney cortex; 0.1 mmol/kg
  renal enhancement left in less than an hour: 30%
Kidney cortex
  maximal renal intensity enhancement (IE): 135%
[1]
  D: 2.24E-5 cm^2s^−1
  TR: 140 ps
  TV: 13 ps
  a: 4.0 Å
  q: 2
  r: 2.97 Å
  Δ^2: 9e+19 s⁻¹
Liver parenchyma; 0.1 mmol/kg
  hepatic IE level maintained for more than 4 h: > 60%
  time after administration of maximal hepatic IE: 60 min
  time for which strong/high hepatic IE was maintained: more than 4 h
Liver parenchyma
  maximal hepatic IE: 100%
[2]; 25° C.
  water exchange rate kex^298: 8.62e+06 s⁻¹
  TM: 116 ns
[2]
  exchange lifetime TM of inner-sphere coordinated water: 116 ns
  q, inner-sphere coordinated water molecules: about 2
[4]; 25° C., pH 6.9
  proton relaxivity r1 (r1p): 9.36 mM⁻¹ s⁻¹
[4]; pH 10.0
  outer-sphere contribution to the overall observed proton relaxivity: about 50%
  outer-sphere relaxivity: 2.1 mM⁻¹ s⁻¹
  overall relaxivity: 4.21 mM⁻¹ s⁻¹

## O=C([O-])CN1CCN(CC(=O)[O-])CCN(CC(=O)N2CCOCCOCCN(Cc3ccc4ccccc4n3)CCOCCOCC2)CCN(CC(=O)[O-])CC1.[Gd+3] [GdL3, Gd^3+ complex of L3]
Kidney cortex
  maximal renal intensity enhancement (IE): 58%
[1]
  reorientation lifetime TR: 210 ps
  D: 2.24E-5 cm^2s^−1
  TR: 210 ps
  TV: 21 ps
  a: 4.2 Å
  q: 1
  r: 3.03 Å
  Δ^2: 3e+19 s⁻¹
Liver parenchyma; 0.1 mmol/kg
  hepatic IE level maintained for more than 4 h: about 50%
  time for which strong/high hepatic IE was maintained: more than 4 h
Liver parenchyma
  maximal hepatic IE: 59%
[2]; 25° C.
  TM: 246 ns
[2]
  exchange lifetime TM of inner-sphere coordinated water: 246 ns
  q, inner-sphere coordinated water molecules: 1
[4]; pH 7.4
  relaxivity: 4.95 mM⁻¹ s⁻¹

## O=C([O-])CN1CCN(CC(=O)[O-])CCN(C(CO)C(O)CO)CCN(CC(=O)[O-])CC1.[Gd+3] (stereo not shown) [Gd[DO3A-butrol]]
[3]; 37° C., 20 MHz
  relaxivity: 5.6 mM⁻¹ s⁻¹

## O=C([O-])CN1CCNCCN(CC(=O)[O-])CCN(CC(=O)[O-])CC1.[Tb+3] [Tb-DO3A, reference compound]
[5]
  kH2O, absolute emission depopulation rate constant: 0.88 ms^−1
  kH2O (Table 1), absolute emission depopulation rate constant: 0.42 ms^−1
  q, hydration state: 2.0

## O=C([O-])CN1CCN(CC(=O)[O-])CCN(CC(=O)[O-])CCN(CC(=O)[O-])CC1.[Tb+3] [Tb-DOTA, reference compound]
[5]
  kH2O, absolute emission depopulation rate constant: 0.48 ms^−1
  kH2O (Table 1), absolute emission depopulation rate constant: 0.27 ms^−1
  q, hydration state: 0.8

## O=C([O-])CN1CCN(CCN2CCOCCOCCOCCOCC2)CCN(CC(=O)[O-])CCN(CC(=O)[O-])CC1.[Tb+3] [TbL1]
[5]
  kH2O, absolute emission depopulation rate constant: 0.72 ms^−1
  inner-sphere coordinated (bound) water molecules: two
  kH2O (Table 1), absolute emission depopulation rate constant: 0.34 ms^−1
  q, hydration state: 1.6

## O=C([O-])CN1CCN(CCOCC2COCCOCCOCCOCCO2)CCN(CC(=O)[O-])CCN(CC(=O)[O-])CC1.[Tb+3] (stereo not shown) [TbL2]
[5]
  kH2O, absolute emission depopulation rate constant: 0.74 ms^−1
  inner-sphere coordinated (bound) water molecules: two
  kH2O (Table 1), absolute emission depopulation rate constant: 0.35 ms^−1
  q, hydration state: 1.7

## O=C([O-])CN1CCN(CC(=O)[O-])CCN(CC(=O)N2CCOCCOCCN(Cc3ccc4ccccc4n3)CCOCCOCC2)CCN(CC(=O)[O-])CC1.[Tb+3] [TbL3]
[5]
  kH2O, absolute emission depopulation rate constant: 0.50 ms^−1
  inner-sphere coordinated (bound) water molecules: one
  kH2O (Table 1), absolute emission depopulation rate constant: 0.31 ms^−1
  q, hydration state: 0.7
